Measured values reported in patent US8501732B2, “Aminomethyl quinolone compounds” (Hoffmann-La Roche Inc., priority 2011, dated 2013).

Tests used:
JNK1 = JNK1 (Homo sapiens (Human), UniProt P45983); assay: In Vitro JNK1 Assay (TR-FRET, phosphorylation of GST-c-Jun); type: biochemical; settings: 0.2 nM active JNK1 kinase, 26.7 nM GST-c-Jun, 2 μM ATP, 30 min at room temperature
Outline: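 GST-c-Jun (residues 1-79) phosphorylation by JNK1 in 50 mM HEPES pH 7.0, MgCl2, 1 mM DTT, 0.1 mM Na3VO4, 0.2 mg/mL BSA, 30 min at room temperature. Stopped with EDTA plus anti-phospho-c-Jun antibody and read by TR-FRET 1 hr later. IC50 from percent inhibition over 10 serial dilutions.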

[1] = test system: phospho(Ser63)-c-jun in HK-2 cells; assay: Cell-Based Assay for JNK Inhibitors (in-cell ELISA, phospho(Ser63)-c-jun after TNFα); settings: HK-2 cells (human proximal tubule cells), 60 minutes compound, then 10 ng/mL TNFα for 30 minutes
Outline: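 HK-2 human proximal tubule cells were seeded at 40,000 cells/well, cultured 24 h, then serum-starved 16–24 h before TNFα stimulation with compound. Phospho(Ser63)-c-jun was quantified by in-cell ELISA on fixed, permeabilised cells, using a rabbit phospho-specific primary (overnight, 4 °C) and an HRP-linked anti-rabbit secondary. Absorbance was read at 450 nm.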

JNK1, sequence (P45983 whole entry, the tested form may be a part): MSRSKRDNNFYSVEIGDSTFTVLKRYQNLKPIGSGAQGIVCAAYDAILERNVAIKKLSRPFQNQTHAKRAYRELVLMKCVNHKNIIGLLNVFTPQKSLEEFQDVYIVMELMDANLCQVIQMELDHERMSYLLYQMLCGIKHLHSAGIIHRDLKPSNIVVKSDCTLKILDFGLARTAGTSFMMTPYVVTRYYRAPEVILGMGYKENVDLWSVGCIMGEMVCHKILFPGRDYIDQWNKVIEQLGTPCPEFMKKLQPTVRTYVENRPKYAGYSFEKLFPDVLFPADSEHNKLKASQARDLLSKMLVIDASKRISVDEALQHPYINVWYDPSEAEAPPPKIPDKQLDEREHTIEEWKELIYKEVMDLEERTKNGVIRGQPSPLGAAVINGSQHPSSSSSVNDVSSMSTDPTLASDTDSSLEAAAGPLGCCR

IC50 (JNK1) [µM]	EC50 [1] [µM]	SMILES
0.004	5.7	COC(=O)c1c(CNC(=O)c2ccc(S(C)(=O)=O)cc2)c(=O)c2ccc(Cl)cc2n1-c1ccccc1 [Example I-109, 7-chloro-3-[(4-methanesulfonyl-benzoylamino)-methyl]-4-oxo-1-phenyl-1,4-dihydroquin-oline-2-carboxylic acid methyl ester]
0.004	4	COC(=O)c1c(CNC(=O)c2ccc(-c3cnco3)cc2)c(=O)c2ccc(Cl)cc2n1-c1ccccc1 [Example I-110, 7-Chloro-3-[(4-oxazol-5-yl-benzoylamino)-methyl]-4-oxo-1-phenyl-1,4-dihydro-quinoline-2-carboxylic acid methyl ester]
0.005	1.3	COC(=O)c1c(CNC(=O)c2ccc(-c3nnc[nH]3)cc2)c(=O)c2ccc(Cl)cc2n1-c1ccccc1 [Example I-111, 7-Chloro-4-oxo-1-phenyl-3-{[4-(4H-[1,2,4]triazol-3-yl)-benzoylamino]-methyl}-1,4-dihydro-quinoline-2-carboxylic acid methyl ester]
0.006	1.2	COC(=O)c1c(CNC(=O)c2ccc(N3CCOCC3)nc2)c(=O)c2ccc(Cl)cc2n1-c1ccccc1 [Example I-112, 7-Chloro-3-{[(6-morpholin-4-yl-pyridine-3-carbonyl)-amino]-methyl}-4-oxo-1-phenyl-1,4-dihydro-quinoline-2-carboxylic acid methyl ester]
0.007	2	COC(=O)c1c(CNC(=O)c2ccc3scnc3c2)c(=O)c2ccc(Cl)cc2n1-c1ccccc1 [Example I-113, 3-{[(Benzothiazole-5-carbonyl)-amino]-methyl}-7-chloro-4-oxo-1-phenyl-1,4-dihydro-quinoline-2-carboxylic acid methyl ester]
0.007	4.1	COC(=O)c1c(CNC(=O)c2ccc(-c3ncc[nH]3)cc2)c(=O)c2ccc(Cl)cc2n1-c1ccccc1 [Example I-114, 7-Chloro-3-{[4-(1H-imidazol-2-yl)-benzoylamino]-methyl}-4-oxo-1-phenyl-1,4-dihydro-quinoline-2-carboxylic acid methyl ester]
0.008	2.4	COC(=O)c1c(CNC(=O)c2ccc(S(N)(=O)=O)cc2)c(=O)c2ccc(Cl)cc2n1-c1ccccc1 [Example I-115, 7-Chloro-4-oxo-1-phenyl-3-[(4-sulfamoyl-benzoylamino)-methyl]-1,4-dihydro-quinoline-2-carboxylic acid methyl ester]
0.01	3.8	COC(=O)c1c(CNC(=O)c2ccc(C(N)=O)cc2)c(=O)c2ccc(Cl)cc2n1-c1ccccc1 [Example I-117, 3-[(4-Carbamoyl-benzoylamino)-methyl]-7-chloro-4-oxo-1-phenyl-1,4-dihydro-quinoline-2-carboxylic acid methyl ester]
0.011	3.7	CNC(=O)c1ccc(C(=O)NCc2c(C(=O)OC)n(-c3ccccc3)c3cc(Cl)ccc3c2=O)cc1 [Example I-118, 7-Chloro-3-[(4-methylcarbamoyl-benzoylamino)-methyl]-4-oxo-1-phenyl-1,4-dihydro-quinoline-2-carboxylic acid methyl ester]
0.013	6.3	COC(=O)c1c(CNC(=O)c2cnn(Cc3ccccc3)c2)c(=O)c2ccc(Cl)cc2n1-c1ccccc1 [Example I-119, 3-{[(1-Benzyl-1H-pyrazole-4-carbonyl)-amino]-methyl}-7-chloro-4-oxo-1-phenyl-1,4-dihydro-quinoline-2-carboxylic acid methyl ester]
0.015	3	COC(=O)c1c(CNC(=O)c2ccc3cc[nH]c3c2)c(=O)c2ccc(Cl)cc2n1-c1ccccc1 [Example I-120, 7-Chloro-3-{[(1H-indole-6-carbonyl)-amino]-methyl}-4-oxo-1-phenyl-1,4-dihydro-quinoline-2-carboxylic acid methyl ester]
